Laboratory results from PMC4685510, “A Cell Biologist’s Field Guide to Aurora Kinase Inhibitors” (Frontiers in Oncology, 2015).

Assays:
Test in all cases: biochemical
Format in all cases: biochemical
[1] = target: 363 human kinases (including Aurora A/B/C) (Homo sapiens, UniProt P53350); conditions: PLK1; for remaining activity at 0.1 µM: 100 nM; for remaining activity at 0.1 µM / remaining activity at 0.5 µM: read-out: % Enzyme Activity (relative to DMSO controls)
Source text: (§1) However, the Aurora A/B selectivity ratios derived from our in vitro and in vivo data can be compared to prioritize inhibitors.

[2] = target: T1, 363 human kinases (including Aurora A/B/C) (Homo sapiens, UniProt Q05513); conditions: PKCzeta; for remaining activity at 0.1 µM: 100 nM; for remaining activity at 0.1 µM / remaining activity at 0.5 µM: read-out: % Enzyme Activity (relative to DMSO controls)
T1 sequence (Q05513 1-592): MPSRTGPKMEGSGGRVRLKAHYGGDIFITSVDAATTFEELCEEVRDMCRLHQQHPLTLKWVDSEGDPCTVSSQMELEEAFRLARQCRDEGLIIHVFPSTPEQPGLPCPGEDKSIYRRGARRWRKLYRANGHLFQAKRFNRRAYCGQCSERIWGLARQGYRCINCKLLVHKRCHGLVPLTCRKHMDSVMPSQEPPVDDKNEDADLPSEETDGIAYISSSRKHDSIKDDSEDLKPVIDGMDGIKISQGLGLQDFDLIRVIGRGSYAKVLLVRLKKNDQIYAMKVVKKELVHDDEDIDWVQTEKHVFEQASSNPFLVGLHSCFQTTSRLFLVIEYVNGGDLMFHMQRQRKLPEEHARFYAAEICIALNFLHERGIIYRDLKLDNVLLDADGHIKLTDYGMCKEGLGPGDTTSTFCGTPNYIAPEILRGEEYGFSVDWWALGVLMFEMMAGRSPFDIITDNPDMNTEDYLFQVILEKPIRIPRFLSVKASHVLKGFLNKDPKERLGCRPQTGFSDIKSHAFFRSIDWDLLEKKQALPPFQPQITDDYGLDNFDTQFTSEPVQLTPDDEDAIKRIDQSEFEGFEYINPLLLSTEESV
Source text: as §1

[3] = target: T2, 363 human kinases (including Aurora A/B/C) (Homo sapiens, UniProt P29323); conditions: EPHB2, [ATP] 30 µM; for remaining activity at 0.1 µM: 100 nM; for remaining activity at 0.1 µM / remaining activity at 0.5 µM: read-out: % Enzyme Activity (relative to DMSO controls)
T2 sequence (P29323 19-1055): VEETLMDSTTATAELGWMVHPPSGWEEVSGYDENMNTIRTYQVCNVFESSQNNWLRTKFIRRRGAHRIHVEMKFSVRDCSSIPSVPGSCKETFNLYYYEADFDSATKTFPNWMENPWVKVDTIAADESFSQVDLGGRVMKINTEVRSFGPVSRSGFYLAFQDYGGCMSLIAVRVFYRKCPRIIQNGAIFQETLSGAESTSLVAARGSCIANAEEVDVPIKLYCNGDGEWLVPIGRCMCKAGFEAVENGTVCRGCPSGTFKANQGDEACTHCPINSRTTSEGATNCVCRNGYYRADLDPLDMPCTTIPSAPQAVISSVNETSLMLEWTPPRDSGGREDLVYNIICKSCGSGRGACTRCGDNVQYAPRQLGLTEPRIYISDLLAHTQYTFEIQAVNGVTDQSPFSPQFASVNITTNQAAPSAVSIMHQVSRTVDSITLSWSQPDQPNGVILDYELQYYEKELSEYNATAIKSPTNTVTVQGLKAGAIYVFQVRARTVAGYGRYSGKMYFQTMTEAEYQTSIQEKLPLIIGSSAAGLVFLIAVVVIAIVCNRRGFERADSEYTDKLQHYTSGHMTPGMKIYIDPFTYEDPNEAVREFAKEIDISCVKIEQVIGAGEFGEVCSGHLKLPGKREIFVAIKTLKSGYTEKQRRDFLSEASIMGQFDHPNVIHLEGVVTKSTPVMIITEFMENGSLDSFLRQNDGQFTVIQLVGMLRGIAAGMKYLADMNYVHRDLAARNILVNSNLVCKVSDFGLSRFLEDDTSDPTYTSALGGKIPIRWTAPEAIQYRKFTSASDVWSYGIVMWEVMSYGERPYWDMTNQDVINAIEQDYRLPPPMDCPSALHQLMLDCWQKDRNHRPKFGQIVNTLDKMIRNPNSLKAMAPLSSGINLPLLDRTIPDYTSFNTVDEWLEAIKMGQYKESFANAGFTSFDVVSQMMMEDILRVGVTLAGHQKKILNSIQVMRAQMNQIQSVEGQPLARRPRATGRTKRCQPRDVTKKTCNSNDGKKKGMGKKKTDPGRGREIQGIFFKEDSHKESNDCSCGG
Source text: as §1

[4] = target: T3, 363 human kinases (including Aurora A/B/C) (Homo sapiens, UniProt Q06418); conditions: TYRO3/SKY; for remaining activity at 0.1 µM: 100 nM; for remaining activity at 0.1 µM / remaining activity at 0.5 µM: read-out: % Enzyme Activity (relative to DMSO controls)
T3 sequence (Q06418 41-890): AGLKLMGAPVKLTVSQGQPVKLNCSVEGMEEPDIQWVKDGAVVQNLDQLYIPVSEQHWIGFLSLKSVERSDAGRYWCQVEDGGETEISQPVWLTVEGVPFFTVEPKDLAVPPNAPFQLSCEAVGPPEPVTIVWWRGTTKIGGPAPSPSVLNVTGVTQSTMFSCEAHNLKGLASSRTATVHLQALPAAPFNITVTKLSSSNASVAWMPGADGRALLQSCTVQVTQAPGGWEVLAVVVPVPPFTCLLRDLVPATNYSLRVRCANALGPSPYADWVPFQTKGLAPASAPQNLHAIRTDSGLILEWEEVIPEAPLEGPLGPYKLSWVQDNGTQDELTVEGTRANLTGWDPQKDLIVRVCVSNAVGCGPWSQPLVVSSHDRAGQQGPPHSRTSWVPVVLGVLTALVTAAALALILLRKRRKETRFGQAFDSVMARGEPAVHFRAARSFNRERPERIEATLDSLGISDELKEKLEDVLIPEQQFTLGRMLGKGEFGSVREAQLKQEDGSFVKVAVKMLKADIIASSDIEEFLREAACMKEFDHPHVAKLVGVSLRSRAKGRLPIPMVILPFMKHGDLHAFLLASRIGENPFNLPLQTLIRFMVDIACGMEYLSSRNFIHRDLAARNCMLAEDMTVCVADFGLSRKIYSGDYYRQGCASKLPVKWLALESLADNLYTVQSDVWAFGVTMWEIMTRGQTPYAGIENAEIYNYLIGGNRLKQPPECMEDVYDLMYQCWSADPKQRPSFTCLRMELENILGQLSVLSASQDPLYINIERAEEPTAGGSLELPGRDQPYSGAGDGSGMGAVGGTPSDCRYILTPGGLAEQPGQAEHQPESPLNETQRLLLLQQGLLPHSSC
Source text: as §1

[5] = target: 363 human kinases (including Aurora A/B/C) (Homo sapiens, UniProt O43293); conditions: ZIPK/DAPK3; for remaining activity at 0.1 µM: 100 nM; for remaining activity at 0.1 µM / remaining activity at 0.5 µM: read-out: % Enzyme Activity (relative to DMSO controls)
Chain of 363 human kinases (including Aurora A/B/C) (Homo sapiens, UniProt O43293) (O43293 whole entry): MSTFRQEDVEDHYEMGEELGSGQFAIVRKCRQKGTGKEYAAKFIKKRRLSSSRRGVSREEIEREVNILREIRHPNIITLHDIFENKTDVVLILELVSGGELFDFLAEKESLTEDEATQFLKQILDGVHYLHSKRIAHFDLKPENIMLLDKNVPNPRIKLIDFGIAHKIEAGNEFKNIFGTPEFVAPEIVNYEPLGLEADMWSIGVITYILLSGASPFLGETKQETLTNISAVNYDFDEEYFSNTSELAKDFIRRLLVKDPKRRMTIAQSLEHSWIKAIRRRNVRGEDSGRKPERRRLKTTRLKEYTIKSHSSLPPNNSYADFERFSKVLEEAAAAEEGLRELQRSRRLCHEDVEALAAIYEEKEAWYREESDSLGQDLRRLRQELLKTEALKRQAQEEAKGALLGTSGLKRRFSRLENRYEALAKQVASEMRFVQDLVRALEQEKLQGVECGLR
Source text: as §1

[6] = target: 363 human kinases (including Aurora A/B/C) (Homo sapiens, UniProt P22455); conditions: FGFR4, [ATP] 100 µM; for remaining activity at 0.1 µM: 100 nM; for remaining activity at 0.1 µM / remaining activity at 0.5 µM: read-out: % Enzyme Activity (relative to DMSO controls)
Chain of 363 human kinases (including Aurora A/B/C) (Homo sapiens, UniProt P22455) (P22455 22-802): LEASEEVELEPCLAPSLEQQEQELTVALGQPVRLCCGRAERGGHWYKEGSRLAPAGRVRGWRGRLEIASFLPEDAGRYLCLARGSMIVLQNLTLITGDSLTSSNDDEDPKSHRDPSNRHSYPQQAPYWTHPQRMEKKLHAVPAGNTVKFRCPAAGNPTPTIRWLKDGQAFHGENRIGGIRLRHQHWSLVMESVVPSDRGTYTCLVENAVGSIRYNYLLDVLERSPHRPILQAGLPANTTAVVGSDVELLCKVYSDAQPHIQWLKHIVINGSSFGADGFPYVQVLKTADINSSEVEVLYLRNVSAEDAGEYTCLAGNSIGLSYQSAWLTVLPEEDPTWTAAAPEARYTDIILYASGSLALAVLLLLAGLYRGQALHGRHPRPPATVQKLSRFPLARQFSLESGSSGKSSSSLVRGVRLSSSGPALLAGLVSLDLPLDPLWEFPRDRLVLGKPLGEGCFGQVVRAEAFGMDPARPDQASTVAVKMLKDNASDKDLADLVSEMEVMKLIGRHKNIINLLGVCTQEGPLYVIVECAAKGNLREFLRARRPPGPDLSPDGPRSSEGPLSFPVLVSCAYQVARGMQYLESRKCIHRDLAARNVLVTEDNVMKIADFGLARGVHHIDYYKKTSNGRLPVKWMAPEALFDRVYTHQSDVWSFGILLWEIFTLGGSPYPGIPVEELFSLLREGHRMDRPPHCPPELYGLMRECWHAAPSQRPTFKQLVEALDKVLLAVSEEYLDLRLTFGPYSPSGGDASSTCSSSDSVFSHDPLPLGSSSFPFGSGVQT
Source text: as §1

[7] = target: 363 human kinases (including Aurora A/B/C) (Homo sapiens, UniProt O60674); conditions: JAK2; for remaining activity at 0.1 µM: 100 nM; for remaining activity at 0.1 µM / remaining activity at 0.5 µM: read-out: % Enzyme Activity (relative to DMSO controls)
Chain of 363 human kinases (including Aurora A/B/C) (Homo sapiens, UniProt O60674) (O60674 whole entry): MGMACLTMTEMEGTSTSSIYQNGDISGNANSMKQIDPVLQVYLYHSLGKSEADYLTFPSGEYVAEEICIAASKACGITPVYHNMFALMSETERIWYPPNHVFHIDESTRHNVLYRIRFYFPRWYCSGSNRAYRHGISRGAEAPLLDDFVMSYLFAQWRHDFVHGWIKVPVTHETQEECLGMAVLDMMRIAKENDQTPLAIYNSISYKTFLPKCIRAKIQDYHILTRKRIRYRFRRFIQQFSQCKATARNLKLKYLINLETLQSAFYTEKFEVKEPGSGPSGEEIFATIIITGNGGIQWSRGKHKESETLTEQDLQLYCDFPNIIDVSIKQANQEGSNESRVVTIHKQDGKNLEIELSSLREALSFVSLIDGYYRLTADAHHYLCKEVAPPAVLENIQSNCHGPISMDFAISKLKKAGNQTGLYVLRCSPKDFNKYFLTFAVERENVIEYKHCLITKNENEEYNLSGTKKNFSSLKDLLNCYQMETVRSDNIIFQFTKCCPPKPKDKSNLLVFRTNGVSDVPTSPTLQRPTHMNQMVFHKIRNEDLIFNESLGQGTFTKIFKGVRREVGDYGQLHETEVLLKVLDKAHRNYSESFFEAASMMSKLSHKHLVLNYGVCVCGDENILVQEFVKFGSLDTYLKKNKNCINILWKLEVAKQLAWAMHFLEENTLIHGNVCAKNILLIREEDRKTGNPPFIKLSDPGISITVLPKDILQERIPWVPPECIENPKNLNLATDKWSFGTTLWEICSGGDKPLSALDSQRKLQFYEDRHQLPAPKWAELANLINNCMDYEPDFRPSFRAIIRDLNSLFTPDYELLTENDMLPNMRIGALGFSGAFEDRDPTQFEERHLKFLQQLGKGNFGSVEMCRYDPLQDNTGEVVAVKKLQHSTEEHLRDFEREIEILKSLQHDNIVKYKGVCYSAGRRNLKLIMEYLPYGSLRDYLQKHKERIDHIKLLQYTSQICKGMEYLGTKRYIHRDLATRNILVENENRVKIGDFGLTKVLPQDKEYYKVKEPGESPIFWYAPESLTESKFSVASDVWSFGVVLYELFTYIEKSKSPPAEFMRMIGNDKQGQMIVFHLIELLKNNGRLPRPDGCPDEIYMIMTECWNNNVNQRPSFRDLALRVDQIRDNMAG
Source text: as §1

Chain of 363 human kinases (including Aurora A/B/C) (Homo sapiens, UniProt P53350) (P53350 whole entry): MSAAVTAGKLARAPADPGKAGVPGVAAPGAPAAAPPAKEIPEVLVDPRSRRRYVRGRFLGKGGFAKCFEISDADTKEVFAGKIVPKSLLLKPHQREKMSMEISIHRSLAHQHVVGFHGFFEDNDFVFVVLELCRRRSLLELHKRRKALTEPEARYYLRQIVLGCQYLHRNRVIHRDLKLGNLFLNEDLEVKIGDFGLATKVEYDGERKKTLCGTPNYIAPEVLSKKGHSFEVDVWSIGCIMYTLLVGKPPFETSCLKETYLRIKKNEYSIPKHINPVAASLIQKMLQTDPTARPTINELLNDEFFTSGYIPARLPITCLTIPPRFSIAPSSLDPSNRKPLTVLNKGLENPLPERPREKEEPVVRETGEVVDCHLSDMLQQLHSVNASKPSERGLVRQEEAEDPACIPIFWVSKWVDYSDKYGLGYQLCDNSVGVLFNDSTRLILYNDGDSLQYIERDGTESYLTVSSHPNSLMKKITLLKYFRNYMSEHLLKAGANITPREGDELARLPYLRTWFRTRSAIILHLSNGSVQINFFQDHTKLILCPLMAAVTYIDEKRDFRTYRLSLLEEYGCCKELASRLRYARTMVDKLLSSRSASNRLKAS

SMILES | remaining activity at 0.1 µM [1] [%] | remaining activity at 0.1 µM [2] [%] | remaining activity at 0.1 µM [3] [%] | remaining activity at 0.1 µM [4] [%] | remaining activity at 0.1 µM [5] [%] | remaining activity at 0.1 µM [6] [%] | remaining activity at 0.1 µM [7] [%] | remaining activity at 0.5 µM ([1]; 500 nM) [%] | remaining activity at 0.5 µM ([2]; 500 nM) [%] | remaining activity at 0.5 µM ([3]; 500 nM) [%] | remaining activity at 0.5 µM ([4]; 500 nM) [%] | remaining activity at 0.5 µM ([5]; 500 nM) [%] | remaining activity at 0.5 µM ([6]; 500 nM) [%] | remaining activity at 0.5 µM ([7]; 500 nM) [%] | also measured
CCn1cc(-c2ccnc3[nH]c(-c4cccc(CN(C)C)c4)cc23)c(-c2ccc(NC(=O)N(C)C)cc2)n1 [GSK1070916] | 96.5 | 106 | 97.1 | 83.8 | 91.4 | 125 | 104 |  |  |  |  |  |  |  | 
O=C(O)[C@]1(Cc2cccc(Nc3nccs3)n2)CC[C@@H](Oc2cccc(Cl)c2F)CC1 [MK-5108] | 101 | 99.2 | 59.4 | 75.9 | 97.8 | 91.7 | 31.1 | 100 | 99.2 | 32 | 40.6 | 92.6 | 126 | 7.8 | 
O=C(c1cccc(Cl)c1F)N1CCN(Cc2cccc(Nc3nccs3)n2)CC1 [MK-8745] |  |  |  |  |  |  |  | 95.1 | 97.1 | 81.8 | 29.3 | 95.5 | 118 | 65.6 | % Enzyme Activity (relative to DMSO controls) ([1]; 500 nM): 94.27%; % Enzyme Activity (relative to DMSO controls) ([2]; 500 nM): 96.81%; % Enzyme Activity (relative to DMSO controls) ([3]; 500 nM): 80.85%; % Enzyme Activity (relative to DMSO controls) ([4]; 500 nM): 27.58%; % Enzyme Activity (relative to DMSO controls) ([5]; 500 nM): 93.58%; % Enzyme Activity (relative to DMSO controls) ([6]; 500 nM): 106.52%; % Enzyme Activity (relative to DMSO controls) ([7]; 500 nM): 62.84%
